# Experimental data taken from PubChem BioAssay AID242 (DTP/NCI, 2004).
# “And” between values parts separate entries of the source, which are not always exact repeats. Identical values can stand only once. Inconclusive results and toxic doses are left out.
# Tested on: BDF1 mice, Lymphoma 8 ip, survival T/C
# Assay: NCI In Vivo Anticancer Drug Screen. Data for tumor model Lymphoma 8 (intraperitoneal) in B6D2F1 (BDF1) mice
# Conditions: higher = longer survival
# Description: The antitumor activity of compounds was measured in mice bearing transplantable tumors. Survival or tumor size were measured and the results are expressed as the measurement made in the treated group (T) divided by the measurement made in the vehicle treated control group (C). The tumor model used in this assay is Lymphoma 8 (intraperitoneal) in B6D2F1 (BDF1) mice
# [1] = endpoint: survival time, mean or median, dose: 15.6 mg/kg/injection, schedule: Q01DX010 (ip), vehicle: saline
# [2] = endpoint: survival time, mean or median, dose: 31.3 mg/kg/injection, schedule: Q01DX010 (ip), vehicle: saline
# [3] = endpoint: survival time, mean or median, dose: 12.5 mg/kg/injection, schedule: Q01DX010 (ip), vehicle: saline
# [4] = endpoint: survival time, mean or median, dose: 25.0 mg/kg/injection, schedule: Q01DX010 (ip), vehicle: saline
# [5] = endpoint: survival time, mean or median, dose: 50.0 mg/kg/injection, schedule: Q01DX010 (ip), vehicle: saline
# [6] = endpoint: survival time, mean or median, dose: 100.0 mg/kg/injection, schedule: Q01DX010 (ip), vehicle: saline
# [7] = endpoint: survival time, mean or median, dose: 6.25 mg/kg/injection, schedule: Q01DX010 (ip), vehicle: saline
# [8] = endpoint: survival time, mean or median, dose: 5.0 mg/kg/injection, schedule: Q01DX010 (ip), vehicle: saline
# [9] = endpoint: survival time, mean or median, dose: 10.0 mg/kg/injection, schedule: Q01DX010 (ip), vehicle: saline
# [10] = endpoint: survival time, mean or median, dose: 20.0 mg/kg/injection, schedule: Q01DX010 (ip), vehicle: saline
# [11] = endpoint: survival time, mean or median, dose: 40.0 mg/kg/injection, schedule: Q01DX010 (ip), vehicle: saline
# [12] = endpoint: survival time, mean or median, dose: 80.0 mg/kg/injection, schedule: Q01DX010 (ip), vehicle: saline
smiles,measurement,setting,value
N[C@H](C(=O)O)[C@@H]1CC(Cl)=NO1,T/C,"endpoint: median survival time, dose: 0.38 mg/kg/injection, schedule: Q01DX009 (ip), vehicle: saline",92 % of control
same,T/C,"endpoint: median survival time, dose: 0.75 mg/kg/injection, schedule: Q01DX009 (ip), vehicle: saline",78 % of control
same,T/C,"endpoint: median survival time, dose: 1.5 mg/kg/injection, schedule: Q01DX009 (ip), vehicle: saline",69 % of control
same,T/C,"endpoint: median survival time, dose: 3.0 mg/kg/injection, schedule: Q01DX009 (ip), vehicle: saline",74 % of control
CCn1cnc2c(=S)nc[nH]c21,T/C,[1],91 % of control and 100 % of control
same,T/C,[2],100 % of control
same,T/C,"endpoint: survival time, mean or median, dose: 62.5 mg/kg/injection, schedule: Q01DX010 (ip), vehicle: saline",92 % of control and 100 % of control
C=CCSc1nc(N)nc2nc[nH]c12,T/C,"endpoint: survival time, mean or median, dose: 16.0 mg/kg/injection, schedule: Q01DX015 (ip), vehicle: other",101 % of control
same,T/C,"endpoint: survival time, mean or median, dose: 31.0 mg/kg/injection, schedule: Q01DX015 (ip), vehicle: other",100 % of control
same,T/C,"endpoint: survival time, mean or median, dose: 62.5 mg/kg/injection, schedule: Q01DX015 (ip), vehicle: other",90 % of control
CS(=O)(=O)OCCC(=O)N1CCN(C(=O)CCOS(C)(=O)=O)CC1,T/C,[3],116 % of control
same,T/C,[4],123 % of control
same,T/C,[5],156 % of control
same,T/C,[6],203 % of control
CS(=O)(=O)OCCCCOS(C)(=O)=O,T/C,[7],100 % of control
same,T/C,[3],105 % of control
same,T/C,[4],100 % of control
same,T/C,[5],105 % of control
CSc1ncnc2nc[nH]c12,T/C,[4],103 % of control
same,T/C,[5],103 % of control
same,T/C,[6],100 % of control
CC(=O)Nc1ccc2nc3ccc(NC(C)=O)cc3[n+](-c3ccccc3)c2c1,T/C,[4],107 % of control
same,T/C,[5],89 % of control
same,T/C,[6],92 % of control
NC(=O)/C=C/NC(=O)/C=N\O,T/C,"endpoint: survival time, mean or median, dose: 50.0 mg/kg/injection, schedule: Q01DX008 (ip), vehicle: saline",92 % of control
same,T/C,"endpoint: survival time, mean or median, dose: 200.0 mg/kg/injection, schedule: Q01DX008 (ip), vehicle: saline",88 % of control
C[C@@H]1C[C@@H]([C@H](O)CC2CC(=O)NC(=O)C2)C(=O)[C@@H](C)C1,T/C,[8],115 % of control
same,T/C,[9],105 % of control
same,T/C,[10],115 % of control
same,T/C,[11],120 % of control
S=P(N1CCOCC1)(N1CC1)N1CC1,T/C,"endpoint: survival time, mean or median, dose: 2.5 mg/kg/injection, schedule: Q01DX010 (ip), vehicle: saline",100 % of control and 113 % of control
same,T/C,[8],104 % of control and 109 % of control
same,T/C,[9],113 % of control
same,T/C,[10],86 % of control and 122 % of control
Cc1c(O)ccc(=O)n1O,T/C,"endpoint: survival time, mean or median, dose: 49.0 mg/kg/injection, schedule: Q01DX015 (ip), vehicle: other",100 % of control
same,T/C,"endpoint: survival time, mean or median, dose: 73.0 mg/kg/injection, schedule: Q01DX015 (ip), vehicle: other",97 % of control
same,T/C,"endpoint: survival time, mean or median, dose: 110.0 mg/kg/injection, schedule: Q01DX015 (ip), vehicle: other",105 % of control
C[C@@H]1C[C@H]2CC[C@H](O2)[C@H](C)C(=O)O[C@@H](C)C[C@@H]2CC[C@@H](O2)[C@@H](C)C(=O)O[C@H](C)C[C@H]2CC[C@H](O2)[C@H](C)C(=O)O[C@@H](C)C[C@@H]2CC[C@@H](O2)[C@@H](C)C(=O)O1,T/C,"endpoint: survival time, mean or median, dose: 45.0 mg/kg/injection, schedule: Q01DX015 (ip), vehicle: other",102 % of control
same,T/C,"endpoint: survival time, mean or median, dose: 90.0 mg/kg/injection, schedule: Q01DX015 (ip), vehicle: other",94 % of control
same,T/C,"endpoint: survival time, mean or median, dose: 360.0 mg/kg/injection, schedule: Q01DX015 (ip), vehicle: other",88 % of control
Cc1cc(N(CCCl)CCCl)ccc1N=Nc1ccccc1C(=O)O,T/C,[8],91 % of control and 107 % of control
same,T/C,[9],108 % of control and 110 % of control
same,T/C,[10],108 % of control
CCN(CCNc1ccc(C)c2sc3cc(Cl)ccc3c(=O)c12)CC(C)O (centres undefined),T/C,"endpoint: survival time, mean or median, dose: 7.8 mg/kg/injection, schedule: Q01DX010 (ip), vehicle: saline",100 % of control
same,T/C,[1],100 % of control
same,T/C,[2],96 % of control
CN(C)c1nc(N(C)C)nc(N(C)C)n1,T/C,"endpoint: survival time, mean or median, dose: 18.8 mg/kg/injection, schedule: Q01DX010 (ip), vehicle: saline",104 % of control and 122 % of control
same,T/C,"endpoint: survival time, mean or median, dose: 37.5 mg/kg/injection, schedule: Q01DX010 (ip), vehicle: saline",95 % of control and 113 % of control
same,T/C,"endpoint: survival time, mean or median, dose: 75.0 mg/kg/injection, schedule: Q01DX010 (ip), vehicle: saline",100 % of control
same,T/C,"endpoint: survival time, mean or median, dose: 150.0 mg/kg/injection, schedule: Q01DX010 (ip), vehicle: saline",100 % of control
CN(Cc1cnc2nc(N)nc(N)c2n1)c1ccc(C(=O)N[C@@H](CCC(=O)O)C(=O)O)cc1,T/C,"endpoint: median survival time, dose: 1.0 mg/kg/injection, schedule: Q01DX009 (ip), vehicle: sodium bicarbonate",118 % of control
same,T/C,"endpoint: median survival time, dose: 2.0 mg/kg/injection, schedule: Q01DX009 (ip), vehicle: sodium bicarbonate",93 % of control
COc1cc(-c2ccc(Nc3ccccc3C(=O)O)c(OC)c2)ccc1Nc1ccccc1C(=O)O,T/C,"endpoint: survival time, mean or median, dose: 25.0 mg/kg/injection, schedule: Q01DX015 (ip), vehicle: carboxymethylcellulose (CMC)",101 % of control
same,T/C,"endpoint: survival time, mean or median, dose: 50.0 mg/kg/injection, schedule: Q01DX015 (ip), vehicle: carboxymethylcellulose (CMC)",89 % of control
same,T/C,"endpoint: survival time, mean or median, dose: 100.0 mg/kg/injection, schedule: Q01DX015 (ip), vehicle: carboxymethylcellulose (CMC)",96 % of control
same,T/C,"endpoint: survival time, mean or median, dose: 200.0 mg/kg/injection, schedule: Q01DX015 (ip), vehicle: carboxymethylcellulose (CMC)",90 % of control
Nc1c(Br)cc2c(c1Br)Cc1cc([N+](=O)[O-])ccc1-2,T/C,"endpoint: survival time, mean or median, dose: 62.5 mg/kg/injection, schedule: Q01DX015 (ip), vehicle: carboxymethylcellulose (CMC)",88 % of control
same,T/C,"endpoint: survival time, mean or median, dose: 125.0 mg/kg/injection, schedule: Q01DX015 (ip), vehicle: carboxymethylcellulose (CMC)",87 % of control
CCCNc1ncnc2[nH]ncc12,T/C,"endpoint: survival time, mean or median, dose: 3.13 mg/kg/injection, schedule: Q01DX010 (ip), vehicle: saline",104 % of control (2×) and 105 % of control
same,T/C,[7],105 % of control and 106 % of control
same,T/C,[3],90 % of control and 100 % of control and 114 % of control
CC(=O)OCC1OC(n2cnc3c(=S)nc(N)[nH]c32)C(OC(C)=O)C1OC(C)=O (centres undefined),T/C,"endpoint: survival time, mean or median, dose: 12.5 mg/kg/injection, schedule: Q01DX015 (ip), vehicle: other",106 % of control
same,T/C,"endpoint: survival time, mean or median, dose: 25.0 mg/kg/injection, schedule: Q01DX015 (ip), vehicle: other",107 % of control
same,T/C,"endpoint: survival time, mean or median, dose: 50.0 mg/kg/injection, schedule: Q01DX015 (ip), vehicle: other",97 % of control
NC(C/[N+]([O-])=N/O)C(=O)O (centres undefined),T/C,"endpoint: median survival time, dose: 12.5 mg/kg/injection, schedule: Q01DX009 (ip), vehicle: saline",113 % of control
same,T/C,"endpoint: median survival time, dose: 25.0 mg/kg/injection, schedule: Q01DX009 (ip), vehicle: saline",117 % of control
O=c1[nH]c(=O)n(C2CC(O)C(CO)O2)cc1F (centres undefined),T/C,[9],103 % of control
same,T/C,[10],100 % of control
same,T/C,[11],114 % of control
same,T/C,[12],96 % of control
OCC1OC(n2cnc3c(=S)nc[nH]c32)C(O)C1O (centres undefined),T/C,[10],104 % of control and 112 % of control
same,T/C,[11],100 % of control and 109 % of control and 112 % of control
same,T/C,[12],105 % of control and 118 % of control and 121 % of control
same,T/C,"endpoint: survival time, mean or median, dose: 160.0 mg/kg/injection, schedule: Q01DX010 (ip), vehicle: saline",93 % of control and 118 % of control
Clc1ncnc2nc[nH]c12,T/C,"endpoint: survival time, mean or median, dose: 7.5 mg/kg/injection, schedule: Q01DX010 (ip), vehicle: saline",100 % of control
same,T/C,"endpoint: survival time, mean or median, dose: 15.0 mg/kg/injection, schedule: Q01DX010 (ip), vehicle: saline",100 % of control
same,T/C,"endpoint: survival time, mean or median, dose: 30.0 mg/kg/injection, schedule: Q01DX010 (ip), vehicle: saline",110 % of control
same,T/C,"endpoint: survival time, mean or median, dose: 60.0 mg/kg/injection, schedule: Q01DX010 (ip), vehicle: saline",100 % of control
C[n+]1c2ccccc2nc2c(N)cc(N)cc21,T/C,"endpoint: survival time, mean or median, dose: 8.0 mg/kg/injection, schedule: Q01DX010 (ip), vehicle: saline",121 % of control
same,T/C,"endpoint: survival time, mean or median, dose: 12.0 mg/kg/injection, schedule: Q01DX010 (ip), vehicle: saline",117 % of control
same,T/C,"endpoint: survival time, mean or median, dose: 18.0 mg/kg/injection, schedule: Q01DX010 (ip), vehicle: saline",107 % of control
COc1ccc(C2NCCS2)cc1 (centres undefined),T/C,[5],103 % of control
same,T/C,[6],100 % of control
same,T/C,"endpoint: survival time, mean or median, dose: 200.0 mg/kg/injection, schedule: Q01DX010 (ip), vehicle: saline",106 % of control
same,T/C,"endpoint: survival time, mean or median, dose: 400.0 mg/kg/injection, schedule: Q01DX010 (ip), vehicle: saline",100 % of control
CN(C)c1ccc(/C=C/c2ccnc3ccccc23)cc1,T/C,[8],104 % of control and 118 % of control
same,T/C,[9],86 % of control and 109 % of control
same,T/C,[10],86 % of control and 104 % of control
same,T/C,[11],95 % of control and 100 % of control
